The values below come from publication PMC11455950, “Effects of SZV-2649, a new multiple ion channel inhibitor mexiletine analogue” (Scientific Reports, 2024).

Data set [1] relates to rapid delayed rectifier potassium current (IKr). The experiment in a line: Whole-cell patch-clamp, rapid delayed rectifier potassium current in dog ventricular myocytes. Type of data set: cell-based. The settings on record: Canis lupus familiaris, Ventricular myocyte, tail current, dog left ventricular myocytes. The method, then: (§1) The effects of SZV-2649 on transmemrane ionic currents were investigated in dog cardiac myocytes after a 5-minute superfusion of the drug.
The rapid delayed rectifier potassium current (IKr) was elicited from the holding potential of -80 mV following a prepulse to -40 mV. IKr tail current was measured at a post pulse to -40 mV after 1 s long test pulses from − 30 mV to 50 mV using 10 mV increments at the pulsing cycle length of 20 s (see inset of Fig. 4A). The effect of SZV-2649 was investigated at 1 and 5 µM concentrations.
(§2) Ventricular myocytes from Beagle dogs were enzymatically dissociated as described in detail previously. […]
(§3) The membrane currents were recorded with Axopatch-200B amplifiers (Molecular Devices, Sunnyvale, CA, USA) by means of the whole-cell configuration of the patch-clamp technique. […]
(§4) The inward rectifier (IK1), the transient outward (Ito), the rapid (IKr) and the slow (IKs) delayed rectifier potassium currents were recorded in HEPES-buffered Tyrode’s solution. […] When IKr was recorded, IKs was inhibited by using the selective IKs blocker HMR-1556 (0.5 µM). […]

For data set [2], the system named is dog Purkinje fiber preparations. The experiment in a line: Conventional microelectrode action potential recording, dog Purkinje fibers. The settings on record: CL = 500 ms, n = 10. The method, then:
The effects of SZV-2649 on action potentials were studied in dog ventricular, atrial and Purkinje fiber preparations.
Action potentials were recorded in cardiac ventricular trabeculae and papillary muscle preparations obtained from the right ventricles of Beagle dogs (10–15 kg) of either sex using the conventional microelectrode technique. Dogs were sacrificed by iv. sedation with xylazine (1 mg/kg), followed by i.v. administration of 50 mg/kg pentobarbital. After the cornea reflex disapeared the chest was opened, and the heart was rapidly removed. The heart was immediately rinsed in oxygenated modified Locke’s solution containing (in mM): NaCl 128.3, KCl 4, CaCl2 1.8, MgCl2 0.42, NaHCO3 21.4, and glucose 10. The pH of this solution was set between 7.35 and 7.4 when gassed with the mixture of 95% O2 and 5% CO2 at 37 °C.
Isolated papillary muscle or atrial trabecula and Purkinje fiber preparations were obtained and prepared from the right ventricle and were individually mounted in a tissue chamber with the volume of 50 ml. Each preparation was initially stimulated through a pair of platinum electrodes in contact with the preparation using rectangular current pulses of 2 ms duration. These stimuli were delivered at a constant cycle length of 1000 ms for at least 60 min allowing the preparation to equilibrate before the measurements were initiated. Transmembrane potentials were recorded using conventional glass microelectrodes, filled with 3 M KCl and having tip resistances of 5–20 MΩ, connected to the input of a high impedance electrometer (Experimetria, type 309, Budapest, Hungary) which was coupled to a dual beam oscilloscope. […] Attempts were made to maintain the same impalement throughout each experiment. In case an impalement became dislodged, adjustment was attempted, and if the action potential characteristics of the re-established impalement deviated by less than 5% from the previous measurement, the experiment continued[64]–[67]. All measurements were carried out at 37 °C.

The test system of data set [3] is slow delayed rectifier potassium current (IKs). The experiment in a line: Whole-cell patch-clamp, slow delayed rectifier potassium current in dog ventricular myocytes. Type of data set: cell-based. The settings on record: 10 µM, dog left ventricular myocytes. Here is the method:
as §1
The slow delayed rectifier potassium current (IKs) was elicited from the holding potential of -80 mV with a prepulse to -40 mV. The IKs tail current was measured at a post pulse to -40 mV after 5-second-long test pulses from − 20 mV to 50 mV using 10 mV increments at the pulsing cycle length of 10 s (see inset of Fig. 4B). The effect of SZV-2649 was investigated at the concentration of 10 µM.
as §2, §3, §4
On the technique in general: In patch-clamp work, channel activity is measured electrically.

As for `CC(N)COc1c(I)cc(C#N)cc1I.Cl` (stereo not drawn) [SZV-2649, 4-(2-aminopropoxy)-3,5-diiodobenzonitrile hydrochloride], the melting point (commonly the temperature of the solid-liquid transition) was 216 to 219 °C. Besides, the inhibition – broadly, how much of the control response was suppressed – at 1 µM in data set [1] (1 µM) is roughly 23%. Also, in data set [1] (5 µM), the inhibition at 5 µM was roughly 75%. In data set [2] (5 µM), the APA is 123.8 ± 2.3 mV, the APD50 is 113.6 ± 5.6 ms, the APD90 is 217.4 ± 5.1 ms and the RP is reported as −84.7 ± 1.7 mV. In addition, the Vmax in data set [2] (5 µM) came to 507.4 ± 53.4 V/s. Further, in data set [2] (10 µM), the APA turned out to be 119.2 ± 3.3 mV, the APD50 is reported as 112.4 ± 7.9 ms, the APD90 was 223.4 ± 5.6 ms and the RP is listed as −86.0 ± 1.1 mV. Also, the Vmax in data set [2] (10 µM) came to 415.0 ± 28.9 V/s. In addition, the Vmax in data set [2] ([…]) came out at 581.1 ± 39.0 V/s. Besides, in data set [3], the “Effect on amplitude of IKs tail current” value is “did not change or only minimally decreased”.
